# Earlier results in patent publication US5152997A, “Method and device for transdermally administering testosterone across nonscrotal skin at therapeutically effective levels” (Theratech, Inc., priority 1991, dated 1992).
# Legend:
# [1] = e.g., neck, back, chest, arms; for delivery of 5-10 mg/day through a limited area
SMILES,systemic availability of testosterone (oral administration),degradation by the liver (administered orally),permeability to testosterone of skin areas normally used for transdermal delivery [1]
CCCCCCCCCCC(=O)O[C@H]1CC[C@H]2[C@@H]3CCC4=CC(=O)CC[C@]4(C)[C@H]3CC[C@]12C [testosterone undecanoate],provides systemically available testosterone,,
C[C@]12CC[C@H]3[C@@H](CCC4=CC(=O)CC[C@@]43C)[C@@H]1CC[C@@H]2O [testosterone],,rapidly degraded by the liver,too low to permit delivery of the amounts of testosterone needed for therapy
